Assay results published in PubChem BioAssay (NCI).
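Following 48 hours of exposure in 96-well plates, responses at five concentrations were used to interpolate endpoints linearly. The concentration for 50% growth inhibition is given as GI50. Definition used: TGI = concentration required for complete inhibition of growth.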

Assays:
Assay in all cases: NCI-60 cell line screen, 48 h
[1] = tested on: A498 renal
[2] = tested on: COLO 205 colon
[3] = tested on: HCT-15 colon
[4] = tested on: HOP-62 NSCLC
[5] = tested on: HT29 colon
[6] = tested on: LOX IMVI melanoma
[7] = tested on: M14 melanoma
[8] = tested on: NCI-H460 lung
[9] = tested on: LXFL 529 NSCLC

| SMILES | GI50 [1] | TGI [1] | GI50 [2] | TGI [2] | GI50 [3] | TGI [3] | GI50 [4] | TGI [4] | GI50 [5] | TGI [5] | GI50 [6] | TGI [6] | GI50 [7] | TGI [7] | GI50 [8] | TGI [8] | TGI [9] |
| --- | --- | --- | --- | --- | --- | --- | --- | --- | --- | --- | --- | --- | --- | --- | --- | --- | --- |
| COc1cc(/C=N/NC(=O)c2cnn3c2NC(c2ccccc2)C3)ccc1Oc1ccccc1 (configuration not stated) | 1.18 µM | 7.03 µM | 0.819 µM | 6.97 µM | 0.559 µM | 3.15 µM | 1.18 µM | 4.34 µM | 0.432 µM | 1.76 µM | 0.736 µM | 2.36 µM | 0.761 µM | 10.7 µM | 0.875 µM | 2.83 µM |  |
| Cc1ccc2c(c1)C(C)Cc1c(Cl)ncnc1N2C (configuration not stated) | 2.08 µM | 4.78 µM | 2.11 µM | 4.62 µM | 3.08 µM | 14.1 µM | 3.74 µM | 22.2 µM | 3.48 µM | 47.2 µM | 1.8 µM | 3.78 µM | 2.77 µM | 22.9 µM | 3.66 µM | 91 µM |  |
| COc1ccc(-n2cc(-c3cc(OC)c(OC)c(OC)c3)nc2SCc2ccccc2)cc1OC | > 100 µM | > 100 µM | 69.3 µM | > 100 µM | 33.3 µM | > 100 µM | > 100 µM | > 100 µM | > 100 µM | > 100 µM | 59.3 µM | > 100 µM | > 91.6 µM | > 100 µM | > 100 µM | > 100 µM |  |
| Nc1c([N+](=O)[O-])cc2c3c(cccc13)CC2 |  | > 100 µM |  | > 100 µM |  | > 100 µM |  | > 100 µM |  | > 100 µM |  | > 100 µM |  | > 100 µM |  | > 100 µM |  |
| Cc1cc(=O)[nH]c2cc3c(c4c(n3Cc3ccc(Cl)cc3Cl)CC(C)(C)CC4=O)c(O)c12 | > 100 µM | > 100 µM | > 100 µM | > 100 µM | > 100 µM | > 100 µM | 77.7 µM | > 100 µM | > 100 µM | > 100 µM | > 100 µM | > 100 µM | 71.3 µM | > 100 µM | 79.5 µM | > 100 µM |  |
| COc1ccc(C(=O)/C=C/c2ccc3c(c2)OCO3)c(OCc2ccccc2)c1 |  | > 100 µM |  | > 100 µM |  | > 100 µM |  | > 100 µM |  | > 100 µM |  | > 100 µM |  | > 100 µM |  | > 100 µM |  |
| CC(C)COCC(CN(Cc1ccccc1)c1ccccc1)N1CCCC1 (configuration not stated) | 1.03 µM | 10.4 µM | 1.53 µM | 3.52 µM | 3.15 µM | 15.2 µM | 2.82 µM | 14.4 µM | 1.46 µM | 4.17 µM | 2.48 µM | 8.2 µM | 2.3 µM | 5.76 µM | 2.54 µM | 8.14 µM |  |
| CNCCNc1c2c(c(NCCNC)c3[nH]ccc13)C(=O)c1ccccc1C2=O | 2.14 µM | 4.27 µM | 3.32 µM |  | 0.115 µM | 0.761 µM | 0.135 µM | 0.543 µM | 1.35 µM | 5.23 µM | < 0.0231 µM | 0.0717 µM | 0.27 µM | 1.35 µM | 0.0991 µM | 0.501 µM |  |
| CC(NCCC(=O)N(CCC(=O)N(CCC(=O)N(CCC(=O)N(CCC(=O)N(CCC(=O)N(CCC(=O)N(CCC(=O)N(CCC(=O)N(CCC(=O)O)[C@H](C)c1ccccc1)[C@H](C)c1ccccc1)[C@H](C)c1ccccc1)[C@H](C)c1ccccc1)[C@H](C)c1ccccc1)[C@H](C)c1ccccc1)[C@H](C)c1ccccc1)[C@H](C)c1ccccc1)[C@H](C)c1ccccc1)c1ccccc1 (some centres not stated) | 2.37 µM | 11.8 µM | 1.43 µM | 2.83 µM | 3.22 µM | > 27 µM | 1.99 µM | 6.93 µM | 1.6 µM | 5.37 µM | 1.17 µM | 2.37 µM | 1.77 µM | 5.49 µM | 2.05 µM | 6.64 µM |  |
| C=C1C(=O)OC2C=C(CCC(C)=O)C(C)C(OC(C)=O)CC12 (configuration not stated) |  | 30.1 µM |  |  |  | 20.1 µM |  |  |  | 27.1 µM |  | 3.34 µM |  | 20.7 µM |  | 40.6 µM | 1.67 µM |
| COc1ccc(S(=O)(=O)Nc2cc(/C=C\c3cc(OC)c(OC)c(OC)c3)ccc2OC)cc1 | 0.0357 µM | 0.382 µM | 0.0383 µM | 0.158 µM | 0.0623 µM | > 100 µM | 0.041 µM | > 100 µM | 0.0809 µM | 8.22 µM | 0.272 µM | > 100 µM | 0.103 µM | > 100 µM | 0.178 µM | 11.7 µM |  |
| Cc1cc2[nH]c(=O)c3c4ccccc4cn3c2cc1C | 21.5 µM | 39.6 µM | 15.2 µM | 40 µM | 6.18 µM | 22 µM | 2.71 µM | 8.18 µM | 6.09 µM | > 100 µM | 2.04 µM | 4.02 µM | 13.6 µM | 26.9 µM | 4.43 µM | 20.3 µM |  |
| CCCCCCCCCCC(C(O)c1ccccc1)N1CCCCC1 (configuration not stated) | 1.92 µM | 6.77 µM | 1.54 µM | 2.93 µM | 1.63 µM | 4.38 µM | 1.91 µM | 3.78 µM | 1.72 µM | 4.41 µM | 1.67 µM | 3.03 µM | 1.87 µM | 3.47 µM | 1.84 µM | 3.36 µM |  |
| CN(C)CCCN1c2ccccc2C(C)(C)c2ccccc21 |  | 23 µM |  | 27.8 µM |  | 29.8 µM |  | 31.5 µM |  | 24 µM |  | 28.4 µM |  | 28.8 µM |  | 26.4 µM |  |
| Clc1ccc2nnnn2n1 | 15.1 µM | 54.9 µM | 2.03 µM | 3.81 µM | 4.01 µM | > 100 µM | 4.51 µM | 33.1 µM | 2.93 µM | 8.03 µM | 3.64 µM | > 100 µM | 1.98 µM | 6.26 µM | 3.26 µM | 12 µM |  |
| C=C(C)[C@@H]1CC[C@]2(C)[C@H](CC=C3[C@@H]4[C@@H](C)[C@H](C)CC[C@]4(C(N)=O)CC[C@]32C)[C@@]1(C)CCC#N | 11 µM | 44.5 µM | 4.01 µM | 15.6 µM | 3.44 µM | > 100 µM | 7.71 µM | > 100 µM | 3.34 µM | 21.1 µM | 7.06 µM | 20.1 µM | 4.08 µM | 23.6 µM | 8.35 µM | 29.6 µM |  |
